Data reported in patent US20050255469A1, “Human 5-ht7 receptor promoter sequence” (priority 2002, published 2005).
“Also recorded” adds a separate entry of the source.

Assays:
[1] = tested on: circadian rhythm of hamsters; settings: cited from earlier work
5-HT7 receptor = 5-HT7 receptor (Homo sapiens, UniProt P34969); settings: cited from earlier work
5-HT7 receptor promoter = assay: transient transfection luciferase reporter assay with 5-HT7 promoter constructs in HEK293T cells, barbiturate treatment; format: cell-based, human
Protocol: HEK293T cells were maintained in Dulbecco's modified Eagle's medium supplemented with 100 units/ml penicillin, 100 μg/ml streptomycin, and 10% newborn calf serum. These cells were maintained at 37° C. in a humidified atmosphere of 5% CO2.
10^5 cells/cm^2 in 24-well dishes were transfected with 150 ng promoter plasmid and 50 ng neogal (served as an internal control), using the standard calcium phosphate coprecipitation method. 24 hours after transfection, cells were washed once with PBSA and lysed in 150 μl 100 mM potassium phosphate (pH 7.8), 0.2% Triton X-100. The samples were analyzed for luciferase activity as described previously (Vanden Berghe et al., 1998). β-Galactosidase activity was measured using Galacto Star (Tropix) as substrate. For the barbiturate experiments, treatment with different barbiturates started 24 hours after transfection of the cells
According to MatInspector, a putative BARBIE (Barbiturate Inducible Element) is present in the promoter region of the 5-HT7 receptor. To investigate the possible influence of barbiturates on 5-HT7 promoter activity, we transiently transfected HEK293T cells with the different promoter constructs and treated the transfected cells with barbiturates for 24 h (FIG. 6a). […] The reduction varied from 30-50% depending on the promoter construct used and the type of barbiturate.

GAPDH = assay: RT-PCR analysis of GAPDH mRNA levels in 1321-N1 cells; format: cell-based, human; settings: different concentrations, 24 h
Protocol: (§1) 132-1N1 human astrocytoma cells were seeded into 58 cm^2 plates; 12 hours after seeding the cells were cultured with either medium alone (−) or medium containing 10 nM, 100 nM, 500 nM, 1 μM, 2 μM or 5 μM Mithramycin A (Serva). Total RNA was isolated using a RNeasy, total RNA isolation kit (Qiagen). cDNA was synthesized using AMV reverse transcriptase (Promega). The cDNA was then amplified by PCR in a total volume of 30 μl containing 10 pmol of each primer, 200 μM dNTP, Taq DNA polymerase buffer, 2,5 units of Taq and 5 μl of cDNA. PCR conditions were 94° C., 30 sec; 56° C., 1 min; 72° C., 2 min; for 35 cycles. PCR products were analyzed by electrophoresis through 6% polyacrylamide gel.

5-HT7 promoter = assay: luciferase reporter assay in NS20Y cells transiently transfected with the F1000 construct, mithramycin A treatment; format: cell-based, mouse; settings: increasing concentrations, 24 h
Protocol: N2A and NS20Y cells were maintained in Dulbecco's modified Eagle's medium supplemented with 100 units/ml penicillin, 100 μg/ml streptomycin, and 10% foetal calf serum. These cells were maintained at 37° C. in a humidified atmosphere of 5% CO2. 4×10^5 cells in 6 well dishes were transfected with 500-1000 ng promoter construct and 300 ng neogal (served as internal control), using JetPEI a cationic polymer transfection reagent (Qbiogene).
Cells were treated with different concentrations of Mithramycin A for 24 hours.
The significance of binding by Sp1 to the 5-HT7 promoter for transcriptional activity was confirmed in experiments with mithramycin A, a compound that interferes with Sp1 binding to GC boxes in DNA.

5-HT7 mRNA = assay: RT-PCR analysis of endogenous 5-HT7 mRNA levels in 1321-N1 cells; format: cell-based; settings: 1321-N1 human astrocytoma cells, different concentrations, 24 h
Protocol: as §1

[2] = time course, HEK293T cells, 2000luc+ and 1000luc+, 1.5 mM

5-HT7 receptor, sequence (P34969 whole entry): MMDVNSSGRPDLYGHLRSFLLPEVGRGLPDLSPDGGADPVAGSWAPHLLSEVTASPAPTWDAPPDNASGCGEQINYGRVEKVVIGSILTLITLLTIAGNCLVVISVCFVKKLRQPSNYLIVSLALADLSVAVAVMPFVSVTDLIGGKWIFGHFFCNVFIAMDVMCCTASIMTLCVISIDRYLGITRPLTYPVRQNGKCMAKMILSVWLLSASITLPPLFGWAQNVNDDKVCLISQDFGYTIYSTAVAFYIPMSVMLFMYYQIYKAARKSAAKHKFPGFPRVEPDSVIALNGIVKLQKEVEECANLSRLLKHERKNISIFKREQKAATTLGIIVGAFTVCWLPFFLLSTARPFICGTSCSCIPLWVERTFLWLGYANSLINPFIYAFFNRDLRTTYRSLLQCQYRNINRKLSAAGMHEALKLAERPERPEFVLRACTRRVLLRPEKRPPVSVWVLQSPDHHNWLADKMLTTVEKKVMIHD

With CCCN(CCC)C1CCc2cccc(O)c2C1 (stereo not drawn) [8-OH-DPAT] as the compound, how does the “effect on circadian rhythm” value [1] read?
Its value is “shifted the circadian rhythm”.

What about the “affinity for the 5-HT7 receptor” value (5-HT7 receptor) of the same compound?
Its value is “high affinity”.

With CCC1(CCC(C)C)C(=O)NC(=O)NC1=O [Amobarbital] as the compound, how does the “relative potency in repressing promoter activity” value (5-HT7 receptor promoter; HEK293T cells, 1,5 mM, 24 h, Amobarbital versus Phenobarbital) read?
Its value is “somewhat more potent”.

And the “effect on 5-HT7 receptor promoter activity” value (5-HT7 receptor promoter; HEK293T cells, transient transfection, 1.5 mM barbiturate, 24 h)?
The value was “repress 5-HT7 receptor promoter activity”.

For CCC1(c2ccccc2)C(=O)NC(=O)NC1=O [Phenobarbital], which “time at which repressive effect reached a maximum” value (5-HT7 receptor promoter; [2]) is on record?
The value was 16 h.

What about the “time at which repressive effect was already present” value (5-HT7 receptor promoter; [2]) of the same compound?
The value was ≤ 6 h.

For mithramycin A, which “levels of GAPDH” value (GAPDH) is on record?
Its value is “unaffected”.

What about the 5-HT7 promoter activity (5-HT7 promoter) of the same compound?
Its 5-HT7 promoter activity is “dose-dependent loss of promoter activity; also recorded: inhibits 5-HT7 promoter activity”.

And the “5-HT7 mRNA levels” value (5-HT7 mRNA)?
The value was “significant decrease”.
